{
  "source": "patent US10513511B2",
  "about": "“Aqueous suspension formulation comprising 4-(4-(4-(((3R,5R)-5-((1H-1,2,4-triazol-1-yl)methyl)-5-(2,4-difluoro-phenyl)tetrahydrofuran-3-yl)methoxy)-3-methylphenyl) or a pharmaceutically acceptable salt thereof” (PULMOCIDE LIMITED, priority 2015, dated 2019)",
  "key": {"[1]": {"tested_on": "Aspergillus fumigatus (azole resistant strain: TR34/L98H)", "assay": "Aspergillus fumigatus infection of human alveoli bilayers (transwells), azole resistant strain", "format": "cell-based", "details": "for MIC50 / MIC90: Aspergillus fumigatus, 24 h; for MIC50: read-out: MIC50, invasion into the lower chamber in human alveoli bilayers; for MIC90: read-out: MIC90, invasion into the lower chamber in human alveoli bilayers", "experimental": "In vitro models of human alveoli, consisting of a bilayer of human alveolar epithelial cells and endothelial cells, were prepared as previously described (Hope et al., 2007). This system allows administration of a test compound to the upper (“air” space) and/or lower (“systemic” space) compartments. This flexibility has been exploited to explore the effects of combination treatment by dosing Compound (I) to the upper chamber and posaconazole or other anti-fungal agents to the lower chamber. Primary human pulmonary artery endothelial cells (HPAEC) were harvested and diluted to 10^6 cells/mL in EGM-2 media (Lonza, Basel, Switzerland). Transwells were inverted and the cell suspension (100 μL/well) applied to the base of each transwell. The inverted transwells were incubated at RT within a flow hood for 2 hr after which they were turned upright. EGM-2 media was added to the lower (700 μL/well) and upper (100 μL/well) compartments and the transwells were incubated for 48 hr (37° C., 5% CO2). The EGM-2 media in the lower compartment was then replaced with fresh EGM-2 media. A549 cells were harvested and diluted to 5×10^5 cells/mL in 10% EBM, then added to the upper compartment (100 μL/well) of all transwells and the plates incubated for 72 hr (37° C., 5% CO2). Conidia of itraconazole sensitive Aspergillus fumigatus s (NCPF2010) and itraconazole resistant (TR34-L98H) strains were cultured separately in Sabouraud dextrose agar for 3 days. A stock conidia suspension of either strain was prepared from a Sabouraud dextrose agar culture by washing with PBS-tween (10 mL; PBS containing 0.05% Tween-20, 100 U/mL Penicillin and 100 U/mL Streptomycin). The conidia count was assessed using a Neubauer haemocytometer and adjusted to 10^6 conidia/mL with PBS. A working stock of conidia was prepared in EBM (10^5 conidia/mL) immediately prior to use.\nTest and reference compounds (or neat DMSO as the vehicle) were added to the appropriate wells of 24-well plates (3 μL/well containing 600 μL of 2% FBS EBM) for lower compartment treatment and to 96-well plates (1 μL/well containing 200 μL of 2% FBS EBM) for the treatment of the upper compartment, to provide a final DMSO concentration of 0.5%. The media in the upper compartment was aspirated and that containing the appropriate test and reference compounds, or vehicle, were added (100 μL/well). Transwells were then transferred into the 24-well plate containing the test and reference compounds or DMSO vehicle. After incubation for 1 hr (35° C., 5% CO2) the conidia suspension (10 μL/well) was added to the upper compartment of each transwell. Plates were then incubated for 24 hr (35° C., 5% CO2). Supernatants from each compartment (5 μL/compartment) were collected and stored (−20° C.). Media was replaced daily after collection of the supernatants and all wells were treated with test and reference compounds or with DMSO, as described above, for 3 days. Samples continued to be collected until fungal growth was visible by eye in all transwells. The levels of GM in the supernatant in lower compartment were then measured by ELISA (BioRad, CA, USA) as an index of Aspergillus fumigatus invasion."}, "[2]": {"assay": "Body weight loss of immunocompromised, neutropenic mice caused by A. fumigatus infection", "format": "in vivo, A/J mice", "details": "days 1, 2 and 3 (therapeutic); for Body weight loss Day 2 / Body weight loss Day 3: vs weight on day 1", "experimental": "Aspergillus fumigatus (ATCC 13073 [strain: NIH 5233], American Type Culture Collection, Manassas, Va., USA) was grown on Malt agar (Nissui Pharmaceutical, Tokyo, Japan) plates for 6-7 days at RT (24±1° C.). Spores were aseptically dislodged from the agar plates and suspended in sterile distilled water with 0.05% Tween 80 and 0.1% agar. On the day of infection, spore counts were assessed by haemocytometer and the inoculum was adjusted to obtain a concentration of 1.67×10^8 spores mL^−1 of physiological saline. […] On day 0, animals were infected with the spore suspension (30 μL intra-nasally).\nTest substances were administered intra-nasally (35 μL of a suspension (0.0032-10.0 mg/mL of drug substance in physiological saline) once daily, on days 1, 2 and 3 only (thereby representing a therapeutic treatment regimen). For extended prophylactic treatment, test compounds (35 μL of a suspension of 0.0032 or 0.016 mg/mL in physiological saline) were administered intra-nasally once daily for seven days. One group was dosed 30 min before infection on day 0 but not subsequently, while a second group was further dosed on days 1, 2 and 3 after infection. The effects of these treatment paradigms were compared with those obtained when treatment was restricted in other groups to either one day or 30 min before inoculation and then on days 1, 2 and 3 post infection in both cases. In a final group, dosing was limited still further with animals dosed twice, one day and 30 min before infection only.\nAnimal body weights were monitored daily and at 6 hr after the last dose of drug was administered on day 3, the animals were anesthetised, the tracheas cannulated and BALF blood and lung tissue were collected. The levels of IL-6 and TNFα in serum were determined using Quantikine® mouse IL-6 or TNF-α ELISA kit (R&D systems, Inc., Minneapolis, Minn., USA) respectively. Aspergillus GM in serum was determination using Platelia GM-EIA kits (Bio-Rad Laboratories, Redmond, Wash., USA). Cut-off index (COI) was calculated by the formula: Cut-off index=OD in sample/OD in cut-off control provided in kit. For tissue fungal load assays, 100 mg of lung tissue was removed aseptically and homogenized in 0.2 mL of 0.1% agar in sterile distilled water. Serially diluted lung homogenates were plated on Malt agar plates (50 μL/plate), and incubated at 24±1° C. for 72 to 96 h. The colonies of A. fumigatus on each plate were counted and the fungal titre presented herein as CFUs per gram of lung tissue."}, "[3]": {"details": "Compound (Ia) 0.0032 mg/mL intranasal"}, "[4]": {"details": "Compound (Ia) 0.016 mg/mL intranasal"}, "[5]": {"details": "Compound (Ia) 0.08 mg/mL intranasal"}, "[6]": {"details": "Day 1, TR34-L98H, Compound 0.3 μg/mL upper chamber, posaconazole 0.1 μg/mL lower chamber, combination of both"}, "[7]": {"details": "Day 2, TR34-L98H, Compound 0.3 μg/mL upper chamber, posaconazole 0.1 μg/mL lower chamber, combination of both"}, "[8]": {"details": "Day 3, TR34-L98H, Compound 0.3 μg/mL upper chamber, posaconazole 0.1 μg/mL lower chamber, combination of both"}, "[9]": {"details": "Posaconazole 0.4 mg/mL intranasal"}, "[10]": {"details": "Posaconazole 2 mg/mL intranasal"}, "[11]": {"details": "Posaconazole 10 mg/mL intranasal"}},
  "data": [
    {"smiles": "Cc1cc(N2CCN(c3ccc(C(=O)N[C@H]4CCCC[C@@H]4O)cc3)CC2)ccc1OC[C@@H]1CO[C@@](Cn2cncn2)(c2ccc(F)cc2F)C1", "note": "[Compound (Ia), 4-(4-(4-(((3R,5R)-5-((1H-1,2,4-triazol-1-yl)methyl)-5-(2,4-difluorophenyl)tetrahydrofuran-3-yl)methoxy)-3-methylphenyl)piperazin-1-yl)-N-((1S,2S)-2-hydroxycyclohexyl) benzamide]", "values": [
      {"measurement": "MIC50", "setting": "[1]", "result": 0.261, "unit": "µM"},
      {"measurement": "MIC90", "setting": "[1]", "result": 0.417, "unit": "µM"},
      {"measurement": "maximum inhibition of GM levels in the bottom chamber", "setting": "[1]; TR34/L98H, administration to the apical chamber, 1 day post infection", "result": "exceeding 90%"},
      {"measurement": "% Inhibition of weight loss Day 2", "setting": "[2]; [3]", "result": 24, "unit": "%"},
      {"measurement": "% Inhibition of weight loss Day 3", "setting": "[2]; [3]", "result": 9, "unit": "%"},
      {"measurement": "Body weight loss Day 2", "setting": "[2]; [3]", "result": "4.2 ± 1.2", "unit": "%"},
      {"measurement": "Body weight loss Day 3", "setting": "[2]; [3]", "result": "9.7 ± 2.1", "unit": "%"},
      {"measurement": "% Inhibition of weight loss Day 2", "setting": "[2]; [4]", "result": 35, "unit": "%"},
      {"measurement": "% Inhibition of weight loss Day 3", "setting": "[2]; [4]", "result": 9, "unit": "%"},
      {"measurement": "Body weight loss Day 2", "setting": "[2]; [4]", "result": "3.6 ± 1.2", "unit": "%"},
      {"measurement": "Body weight loss Day 3", "setting": "[2]; [4]", "result": "9.7 ± 3.2", "unit": "%"},
      {"measurement": "% Inhibition of weight loss Day 2", "setting": "[2]; [5]", "result": 49, "unit": "%"},
      {"measurement": "% Inhibition of weight loss Day 3", "setting": "[2]; [5]", "result": 22, "unit": "%"},
      {"measurement": "Body weight loss Day 2", "setting": "[2]; [5]", "result": "2.8 ± 2.4", "unit": "%"},
      {"measurement": "Body weight loss Day 3", "setting": "[2]; [5]", "result": "8.3 ± 6.7", "unit": "%"}
    ]},
    {"smiles": "CC[C@@H]([C@H](C)O)n1ncn(-c2ccc(N3CCN(c4ccc(OC[C@@H]5CO[C@@](Cn6cncn6)(c6ccc(F)cc6F)C5)cc4)CC3)cc2)c1=O", "note": "[Posaconazole, reference compound]", "values": [
      {"measurement": "MIC50", "setting": "[1]", "result": 0.315, "unit": "µM"},
      {"measurement": "MIC90", "setting": "[1]", "result": 0.793, "unit": "µM"},
      {"measurement": "GM Levels in the Lower Chamber, OD value", "setting": "[1]; Day 0, TR34-L98H, Compound 0.3 μg/mL upper chamber, posaconazole 0.1 μg/mL lower chamber, combination of both", "result": 0, "unit": "OD"},
      {"measurement": "GM Levels in the Lower Chamber, % inhibition vs. vehicle control", "setting": "[1]; [6]", "result": 98, "unit": "%"},
      {"measurement": "GM Levels in the Lower Chamber, OD value", "setting": "[1]; [6]", "result": 0.016, "unit": "OD"},
      {"measurement": "GM Levels in the Lower Chamber, % inhibition vs. vehicle control", "setting": "[1]; [7]", "result": 35, "unit": "%"},
      {"measurement": "GM Levels in the Lower Chamber, OD value", "setting": "[1]; [7]", "result": 0.73, "unit": "OD"},
      {"measurement": "GM Levels in the Lower Chamber, % inhibition vs. vehicle control", "setting": "[1]; [8]", "result": "−10", "unit": "%"},
      {"measurement": "GM Levels in the Lower Chamber, OD value", "setting": "[1]; [8]", "result": 1.16, "unit": "OD"},
      {"measurement": "DFB50: Days taken to reach a fungal burden of 50% of control", "setting": "[1]; TR34-L98H, Compound 0.3 μg/mL upper chamber, posaconazole 0.1 μg/mL lower chamber, combination of both", "result": 1.94, "unit": "days"},
      {"measurement": "% Inhibition of weight loss Day 2", "setting": "[2]; [9]", "result": "−15", "unit": "%"},
      {"measurement": "% Inhibition of weight loss Day 3", "setting": "[2]; [9]", "result": 1, "unit": "%"},
      {"measurement": "Body weight loss Day 2", "setting": "[2]; [9]", "result": "5.4 ± 0.4", "unit": "%"},
      {"measurement": "Body weight loss Day 3", "setting": "[2]; [9]", "result": "9.2 ± 4.0", "unit": "%"},
      {"measurement": "% Inhibition of weight loss Day 2", "setting": "[2]; [10]", "result": 17, "unit": "%"},
      {"measurement": "% Inhibition of weight loss Day 3", "setting": "[2]; [10]", "result": 24, "unit": "%"},
      {"measurement": "Body weight loss Day 2", "setting": "[2]; [10]", "result": "3.9 ± 1.3", "unit": "%"},
      {"measurement": "Body weight loss Day 3", "setting": "[2]; [10]", "result": "7.1 ± 1.9", "unit": "%"},
      {"measurement": "% Inhibition of weight loss Day 2", "setting": "[2]; [11]", "result": 17, "unit": "%"},
      {"measurement": "% Inhibition of weight loss Day 3", "setting": "[2]; [11]", "result": 54, "unit": "%"},
      {"measurement": "Body weight loss Day 2", "setting": "[2]; [11]", "result": "3.9 ± 1.3", "unit": "%"},
      {"measurement": "Body weight loss Day 3", "setting": "[2]; [11]", "result": "4.3 ± 1.8", "unit": "%"}
    ]}
  ]
}
